In US11071731B2, “Allosteric modulators of the mu opioid receptor” (Chiromics, LLC, priority 2017, dated 2021):
pEC50: −log10 of the molar value. Read-outs that look alike come from different tables or passages of the source.

Key:
mu opioid receptor (MOR) [1] = target: T1, mu opioid receptor (MOR) (Homo sapiens, UniProt P35372); experiment: PathHunter β-arrestin recruitment assay, PAM mode with EC20 endomorphin-1; assay type: cell-based
Summary of the method: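 β-Arrestin recruitment to the receptor was tracked by chemiluminescent β-galactosidase activity from complementing fragments (ED on receptor, EA on β-arrestin). Per-compound outputs were EC50 and percent maximal response.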

ICR rats = experiment: Warm water tail-flick assay with intrathecal exogenous EM1; assay type: in vivo
Experimental: (§1) The warm water tail-flick assay was chosen as the acute pain model for the reasons described above. […] Przewlocka et al., (1999), supra. First, minimum and sub-efficacious dose of EM1, applied via intrathecal injection to rats, were identified. The values obtained for the minimum (3 ug/kg) and sub-efficacious dose of EM1 (1 ug/kg) are in agreement with those found in the literature. Horvath (2000), supra. In addition, the time required for maximal response to an intrathecal injection of EM1 to be observed, as well as the time required for a return to basal levels of antinociception, were determined and likewise found to be in agreement with those found in the literature.
. For these experiments, the delay in tail flick induced by EM1 alone was compared to the delay in tail flick when compound 9 was dosed in ICR-rats in combination with intrathecal administration of minimum and sub-efficacious doses of EM1. […]; These effects might be due to any of the following: Ton[Endomorphin], KElim[Endomorphin], Toff[Endomorphin], KI[Endomorphin], and possibly additional mechanisms.
[…]. The ability to rescue a sub-therapeutic dose of the endogenous ligand in a dose- and time-dependent manner with a subtype selective MOR PAM has significant implications for the clinical viability of the use of MOR PAMs in acute and chronic pain settings.

MOR [2] = target: T2, MOR (Homo sapiens, UniProt P35372); experiment: EM1 concentration-response curves for β-arrestin recruitment with or without compound, full functional allosteric model; assay type: cell-based
T2 sequence (P35372 whole entry): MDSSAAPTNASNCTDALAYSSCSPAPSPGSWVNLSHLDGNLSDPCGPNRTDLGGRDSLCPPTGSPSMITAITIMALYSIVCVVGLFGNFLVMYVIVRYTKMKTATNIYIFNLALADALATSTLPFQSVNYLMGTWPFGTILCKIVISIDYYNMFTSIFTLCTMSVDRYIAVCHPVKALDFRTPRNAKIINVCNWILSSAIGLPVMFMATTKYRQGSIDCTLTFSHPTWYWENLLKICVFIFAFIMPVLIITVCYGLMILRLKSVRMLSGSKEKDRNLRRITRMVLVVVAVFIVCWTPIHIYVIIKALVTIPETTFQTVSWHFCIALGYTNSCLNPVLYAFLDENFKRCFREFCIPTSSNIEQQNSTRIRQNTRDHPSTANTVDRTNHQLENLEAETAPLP

Sprague-Dawley rats = experiment: Gastrointestinal transit of charcoal bolus and stomach contents; conditions: morphine 10 mg/kg, compound 9 15, 30, 60 mg/kg
[3] = Plasma, brain and spinal cord concentrations after subcutaneous dosing; assay type: in vivo; conditions: subcutaneous 15 mg/kg, ICR rats
Experimental: Concentrations of subcutaneously injected compound 9 in spinal tissue (where the DRG are located) were also assessed.

MOR [4] = target: T2, MOR; assay type: cell-based; conditions: β-arrestin; EC20 EM2 agonism of MOR
MOR [5] = target: T2, MOR; experiment: cell-based; conditions: EC20 morphine agonism of MOR
[6] = Terminal pharmacokinetics: plasma, brain and cerebrospinal fluid concentrations; assay type: in vivo; conditions: one hour after 15 mg/kg SC or IP, CD-1 mice
Experimental: Given that opioid receptors are highly concentrated in the dorsal root ganglion (DRG) and brain (Martin-Schild et al., supra), terminal pharmacokinetic studies were performed to verify the concentration in the plasma, cerebrospinal fluid and brain.

MOR [7] = target: T2, MOR; experiment: cell-based; conditions: EC20 Oxycodone agonism of MOR
MOR [8] = target: T2, MOR; experiment: cell-based; conditions: EC20 morphine agonism of MOR; remark: listed apart in the source
MOR [9] = target: T2, MOR; assay type: cell-based; conditions: cAMP; EC20 EM2 agonism of MOR
MOR [10] = target: T2, MOR; assay type: cell-based
mu opioid receptor (MOR) [11] = target: T1, mu opioid receptor (MOR); experiment: Hit Hunter cAMP signaling assay (adenylyl cyclase inhibition), PAM mode with EC20 endomorphin-1; assay type: cell-based
CD1 mice = experiment: Warm water tail-flick assay, compound alone (basal EM1 only); assay type: in vivo; conditions: 15 mg/kg subcutaneous, 30 minutes after dosing, no exogenous EM1
Excerpt: An acute pain model was used to determine the analgesic effect of a MOR PAM administered by itself (i.e., in the absence of exogenous opioid). This approach avoids the complexity of matching the pharmacokinetic profile of endomorphin release in response to a pain-inducing insult with a (1) particular MOR PAM (to account for basal endomorphin analgesis) and (2) the measurement window of the study, as would be required for a chronic pain study. Accordingly, an acute pain model, in which the pharmacodynamic measurement was performed directly after the insult, was employed. This was expected to isolate the low basal levels of EM1 analgesis that existed prior to the insult, thereby eliminating the contribution of the time course of release of endogenous opioids in response to the insult. Mousa et al., supra.
as §1, with “The values obtained for the minimum (3 ug/kg) and sub-efficacious dose of EM1 (1 ug/kg) are in agreement with those found in the literature. Horvath (2000), supra.” left out, “literature. […]” for “literature.”

T1 sequence (P35372 whole entry, the tested form may be a part): as the sequence (P35372 whole entry) above

## Fc1cnc(Cl)nc1N1CCCCC1c1cccc(C(F)(F)F)c1 (single isomer, unassigned) [compound 9]
Mu opioid receptor (MOR) [1]; EM1-mediated MOR agonism, read-out: RC50 for β-arrestin recruitment
  pEC50: 6.44
Mu opioid receptor (MOR) [1]; maximal response for β-arrestin recruitment
  β-arr Max. Resp.: F (F represents a maximal response of > 60%)
Mu opioid receptor (MOR) [1]; β-arrestin recruitment, read-out: β-arr. EC50
  pEC50: > 6.15
Mu opioid receptor (MOR) [1]; β-arrestin, EC20 EM-1 agonism of MOR
  Max. Response: 210
ICR rats; rat, in vivo
  effect on antinociception of a minimally efficacious dose of EM1: potentiates the effect of suboptimal doses of EM-1
  effect on antinociception of a sub-efficacious dose of EM1: potentiates the effect of sub-efficaceous doses of the opioid
ICR rats; tail-flick, EM1 3 μg intrathecal (FIG. 12C)
  αβ product, in vivo effects fit: 31.5
MOR [2]
  effective potency for PAM effect: 70.8 nM
  factor of increase of the affinity (α) of EM1: 9
  factor of increase of the efficacy (β) of EM1: 3
  shift in the potency of EM1: concentration-dependent and saturable leftward shifts
MOR [2]; β-arrestin endomorphin responses
  αβ product, in vitro: 27
Sprague-Dawley rats; 20 minutes after charcoal
  stomach weight: unchanged
Sprague-Dawley rats; subcutaneous 1 hour before charcoal
  GI transit: unchanged
[3]
  exposure in spinal tissue and brain: good exposures in spinal tissue
MOR [4]
  Max. Response: 138
MOR [5]; RC50, β-arrestin
  pEC50: 4.97
MOR [5]; β-arrestin
  Max. Response: 456
[6]
  persistence in brain and plasma: persists in brain and plasma, at therapeutically relevant concentrations
MOR [7]; RC50, β-arrestin
  pEC50: 4.96
MOR [7]; β-arrestin
  Max. Response: 296
MOR [8]; RC50, cAMP
  pEC50: 5.53
MOR [8]; cAMP
  Max. Response: 38
MOR [9]
  Max. Response: 80
MOR [10]; cAMP assay
  shift in the potency of EM1: concentration-dependent and saturable leftward shifts
MOR [10]; cAMP signaling
  factor of increase of the affinity (α) of EM1: 2
  factor of increase of the efficacy (β) of EM1: 1.8
MOR [10]; cAMP signaling, EM1
  effective potency for PAM effect: 44 nM
Mu opioid receptor (MOR) [11]; RC50 for adenylyl cyclase inhibition, EM1-mediated MOR agonism
  pEC50: 6.23
Mu opioid receptor (MOR) [11]; cAMP EC50, adenylyl cyclase inhibition
  pEC50: > 6.15
Mu opioid receptor (MOR) [11]; cAMP, EC20 EM-1 agonism of MOR
  Max. Response: 75
Mu opioid receptor (MOR) [11]; maximal response for adenylyl cyclase inhibition
  cAMP Max. Resp.: F (F represents a maximal response of > 60%)
CD1 mice
  antinociceptive effect, tail-flick latency: No antinociceptive effects were observed
